This passage reports IC50 results from patent US20170066759A1, “AROMATIC 5-MEMBERED HETEROCYCLIC DERIVATIVE HAVING TRPV4-INHIBITING ACTIVITY” (Shionogi & Co., Ltd., priority 2012, published 2017).

Some results are limits rather than exact numbers.

By IC50 is commonly meant the midpoint of a concentration-inhibition curve.

T1 sequence (Q9HBA0 whole entry): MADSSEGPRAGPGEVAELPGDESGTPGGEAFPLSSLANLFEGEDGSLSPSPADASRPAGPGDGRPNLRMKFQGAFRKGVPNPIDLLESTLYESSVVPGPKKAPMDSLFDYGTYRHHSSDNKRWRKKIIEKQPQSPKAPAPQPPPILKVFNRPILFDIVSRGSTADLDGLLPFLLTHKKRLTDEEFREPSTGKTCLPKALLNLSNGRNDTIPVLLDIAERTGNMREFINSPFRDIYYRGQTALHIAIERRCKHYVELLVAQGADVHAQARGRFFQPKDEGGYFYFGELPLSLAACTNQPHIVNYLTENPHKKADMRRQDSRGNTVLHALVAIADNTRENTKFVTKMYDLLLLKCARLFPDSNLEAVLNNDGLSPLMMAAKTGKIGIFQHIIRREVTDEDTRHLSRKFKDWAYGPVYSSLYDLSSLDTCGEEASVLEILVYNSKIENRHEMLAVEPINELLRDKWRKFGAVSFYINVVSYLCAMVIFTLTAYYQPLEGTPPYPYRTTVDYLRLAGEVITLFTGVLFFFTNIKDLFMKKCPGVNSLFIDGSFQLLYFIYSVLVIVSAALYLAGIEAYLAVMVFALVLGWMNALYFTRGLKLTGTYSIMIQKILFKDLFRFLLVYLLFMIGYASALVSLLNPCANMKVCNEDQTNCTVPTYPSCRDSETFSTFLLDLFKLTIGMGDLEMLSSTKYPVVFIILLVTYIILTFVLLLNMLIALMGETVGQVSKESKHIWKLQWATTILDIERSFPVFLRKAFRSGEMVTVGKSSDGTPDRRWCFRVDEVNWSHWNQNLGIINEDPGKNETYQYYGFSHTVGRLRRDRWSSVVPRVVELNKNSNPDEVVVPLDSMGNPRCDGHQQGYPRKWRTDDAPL

This experiment has as its target T1, human TRPV4 (hTRPV4/CHO cells) (Homo sapiens, UniProt Q9HBA0).
T1 construct: expressed in transfected cells; host or cells: CHO-K1
The experiment can be described thus: Test Example 1: TRPV4 inhibitory activity (IC50 value), 4α-PDD stimulation, Fluo4 calcium fluorescence (FLIPR TETRA). In kind it is cell-based. Particulars: Test Example 1, 4α-PDD stimulation, read-out: Test 1 IC50.
In the case of `Cc1nc(C(C)(C)O)sc1-c1csc(NC(=O)Cc2c(F)cccc2F)n1` [Compound I-97], the IC50 is 100 to 1000 nM. Regarding `CC(=O)c1nc(C)c(-c2csc(NC(=O)Cc3c(F)cccc3F)n2)s1` [Compound I-98], the IC50 was in the range of 100 to 1000 nM. For the compound `COc1ccccc1CC(=O)Nc1nc(-c2sc(C)nc2C)cs1` [Compound I-99], the IC50 was less than 100 nM. For the compound `Cc1nc(C)c(-c2csc(NC(=O)Cc3cccc(OC(F)(F)F)c3)n2)s1` [Compound I-100], the IC50 is less than 100 nM. The same measure for `Cc1nc(C)c(-c2csc(NC(=O)Cc3cccc(CN(C)C)c3)n2)s1` [Compound I-101]: 1000 to 8000 nM; for `Cc1nc(C)c(-c2csc(NC(=O)C(C)c3c(F)cccc3F)n2)s1` (stereo not drawn) [Compound I-102]: 100 to 1000 nM; for `Cc1nc(C)c(-c2csc(NC(=O)C(O)c3c(F)cccc3F)n2)s1` (stereo not drawn) [Compound I-103]: 1000 to 8000 nM. In the case of `Cc1nc(C)c(-c2csc(NC(=O)Cc3ccc(C(F)(F)F)cn3)n2)s1` [Compound I-104], the IC50 was less than 100 nM. Take `CON(C)C(=O)c1nc(C)c(-c2csc(NC(=O)Cc3c(F)cccc3F)n2)s1` [Compound I-105]: the IC50 lay within 1000 to 8000 nM. On to `Cc1nc(C(N)=O)sc1-c1csc(NC(=O)C2CC2(F)F)n1` (stereo not drawn) [Compound I-106], for which the IC50 lay within 1000 to 8000 nM. As for `Cc1nc(C(=O)NC#N)sc1-c1csc(NC(=O)Cc2c(F)cccc2F)n1` [Compound I-108], the figure is 1000 to 8000 nM; as for `Cc1nc(C(F)F)sc1-c1csc(NC(=O)C2CC2)n1` [Compound I-109], 1000 to 8000 nM.

As for `Cc1nc(C(F)F)sc1-c1csc(NC(=O)Cn2cc(Cl)cn2)n1` [Compound I-110], the IC50 was in the range of 100 to 1000 nM. For the compound `Cc1nc(C(F)F)sc1-c1csc(NC(=O)C2CC(OCc3ccccc3)C2)n1` (stereo not drawn) [Compound I-111], the IC50 lay in the range of 1000 to 8000 nM. Regarding `Cc1nc(C(F)F)sc1-c1csc(NC(=O)C2CC2(F)F)n1` (stereo not drawn) [Compound I-112], the IC50 was in the range of 1000 to 8000 nM. Regarding `CNC(=O)c1nc(C)c(-c2csc(NC(=O)Cc3c(F)cccc3F)n2)s1` [Compound I-113], the IC50 was in the range of 1000 to 8000 nM. `Cc1nc(C(=O)N(C)C)sc1-c1csc(NC(=O)Cc2c(F)cccc2F)n1` [Compound I-114]: the IC50 fell in the range of 1000 to 8000 nM. As to `Cc1nc(C(=O)NS(C)(=O)=O)sc1-c1csc(NC(=O)Cc2c(F)cccc2F)n1` [Compound I-115], the IC50 was in the range of 1000 to 8000 nM. With `Cc1nc(C)c(-c2csc(NC(=O)Cc3ccc(S(=O)(=O)C(F)(F)F)cc3)n2)s1` [Compound I-117], the IC50 lay within 100 to 1000 nM. Consider `Cc1nc(C)c(-c2csc(NC(=O)Cc3ccc(C(F)(F)F)cn3)n2)s1` [Compound I-118], for which the IC50 lay within 100 to 1000 nM. With `Cc1nc(C)c(-c2csc(NC(=O)Cc3ccc(S(C)(=O)=O)cc3)n2)s1` [Compound I-119], the IC50 is 1000 to 8000 nM. As for `Cc1nc(C)c(-c2csc(NC(=O)C3CC3(F)F)n2)s1` (stereo not drawn) [Compound I-120], the figure is 1000 to 8000 nM; as for `Cc1nc(C)c(-c2csc(NC(=O)Cc3ccccc3C#N)n2)s1` [Compound I-121], 100 to 1000 nM; as for `Cc1nc(C)c(-c2csc(NC(=O)Cc3ccc(S(=O)(=O)C(C)C)cc3)n2)s1` [Compound I-122], 100 to 1000 nM. As to `Cc1nc(C)c(-c2csc(NC(=O)Cn3cc(C#N)cn3)n2)s1` [Compound I-123], the IC50 is 1000 to 8000 nM. For `Cc1nc(C)c(-c2csc(NC(=O)Cn3cc(C(F)(F)F)cn3)n2)s1` [Compound I-124], the IC50 was less than 100 nM. On to `Cc1nc(C(=O)NCCO)sc1-c1csc(NC(=O)Cc2c(F)cccc2F)n1` [Compound I-125], for which the IC50 fell in the range of 1000 to 8000 nM. Turning to `Cc1nc(C(=O)NCCN(C)C)sc1-c1csc(NC(=O)Cc2c(F)cccc2F)n1` [Compound I-126], the IC50 was 1000 to 8000 nM.

As to `Cc1nc(C(N)=O)sc1-c1csc(NC(=O)Cn2cc(Cl)cn2)n1` [Compound I-127], the IC50 lay in the range of 100 to 1000 nM. As for `Cc1nc(C(C)(C)O)c(-c2csc(NC(=O)Cc3c(F)cccc3F)n2)s1` [Compound I-128], the figure is 100 to 1000 nM. In the case of `CC(=O)c1nc(C)sc1-c1csc(NC(=O)Cc2c(F)cccc2F)n1` [Compound I-129], the IC50 fell in the range of 100 to 1000 nM. The same measure for `Cc1nc(C(C)O)c(-c2csc(NC(=O)Cc3c(F)cccc3F)n2)s1` (stereo not drawn) [Compound I-130]: 100 to 1000 nM; for `Cc1nc(C)c(-c2csc(NC(=O)Cn3cc(Br)cn3)n2)s1` [Compound I-132]: less than 100 nM.

In the case of `Cc1nc(C(O)CO)sc1-c1csc(NC(=O)Cc2c(F)cccc2F)n1` (stereo not drawn) [Compound I-133], the IC50 lay within 1000 to 8000 nM.

Take `Cc1nc(C)c(-c2csc(NC(=O)Cn3cc(-c4ccccc4)cn3)n2)s1` [Compound I-134]: the IC50 is less than 100 nM.

Consider `Cc1nc(C(O)CC(=O)O)sc1-c1csc(NC(=O)Cc2c(F)cccc2F)n1` (stereo not drawn) [Compound I-135], for which the IC50 lay within 1000 to 8000 nM. `Cc1nc(CO)sc1-c1csc(NC(=O)Cn2cc(C(F)(F)F)cn2)n1` [Compound I-136]: the IC50 is less than 100 nM. As for `Cc1nc(C)c(-c2csc(NC(=O)Cc3cccc(OC(F)(F)F)c3)n2)o1` [Compound I-137], the figure is 100 to 1000 nM. Regarding `Cc1nc(C)c(-c2csc(NC(=O)Cc3cccc(C#N)c3)n2)o1` [Compound I-138], the IC50 lay in the range of 1000 to 8000 nM. With `Cc1nc(C)c(-c2csc(NC(=O)Cc3ccc(C(F)(F)F)cc3)n2)o1` [Compound I-139], the IC50 lay within 100 to 1000 nM. For `Cc1nc(C)c(-c2csc(NC(=O)Cn3cc(Cl)cn3)n2)o1` [Compound I-140], the IC50 fell in the range of 1000 to 8000 nM. In the case of `Cc1nc(C)c(-c2csc(NC(=O)Cc3ccc(S(=O)(=O)CC(F)(F)F)cc3)n2)s1` [Compound I-141], the IC50 was less than 100 nM.

With `Cc1nc(CO)sc1-c1csc(NC(=O)Cc2ccc(S(=O)(=O)C(F)(F)F)cc2)n1` [Compound I-142], the IC50 is less than 100 nM. On to `Cc1nc(C)c(-c2csc(NC(=O)Cc3ccc(S(=O)(=O)CC(F)F)cc3)n2)s1` [Compound I-143], for which the IC50 is 100 to 1000 nM. With `Cc1nc(C)c(-c2csc(NC(=O)CN3CCN(c4ccccc4)CC3)n2)s1` [Compound I-144], the IC50 is 100 to 1000 nM. As for `Cc1nc(C)c(-c2csc(NC(=O)Cn3cc(-c4ccccc4Cl)cn3)n2)s1` [Compound I-145], the figure is less than 100 nM; as for `Cc1nc(C)c(-c2csc(NC(=O)Cn3cc(-c4cccc(Cl)c4)cn3)n2)s1` [Compound I-146], less than 100 nM.

Turning to `Cc1nc(C)c(-c2csc(NC(=O)Cn3cc(-c4ccc(Cl)cc4)cn3)n2)s1` [Compound I-147], the IC50 is less than 100 nM. Take `Cc1nc(C)c(-c2csc(NC(=O)Cn3cc(-c4cccnc4)cn3)n2)s1` [Compound I-148]: the IC50 lay in the range of 100 to 1000 nM. As for `Cc1nc(C)c(-c2csc(NC(=O)Cn3cc(-c4cccc(N(C)C)c4)cn3)n2)s1` [Compound I-149], the IC50 is less than 100 nM. Consider `Cc1nc(C)c(-c2csc(NC(=O)Cn3cc(-c4cccc(S(C)(=O)=O)c4)cn3)n2)s1` [Compound I-150], for which the IC50 was less than 100 nM.

As for `Cc1nc(C)c(-c2csc(NC(=O)Cn3cc(-c4ccc(S(C)(=O)=O)cc4)cn3)n2)s1` [Compound I-151], the IC50 was 100 to 1000 nM. Take `Cc1nc(C)c(-c2csc(NC(=O)CN3CCC(c4ccccc4)CC3)n2)s1` [Compound I-152]: the IC50 is 100 to 1000 nM. In the case of `Cc1nc(C)c(-c2csc(NC(=O)CN3CCC(O)(c4ccccc4)CC3)n2)s1` [Compound I-153], the half-maximal inhibitory concentration (IC50) was 1000 to 8000 nM.
